Assay results as given in patent US10745401B2, “Condensed lactam derivative” (Sumitomo Dainippon Pharma Co., Ltd., priority 2018, dated 2020).

What was measured:
human 5-HT2A receptor [1] = target: T1, human 5-HT2A receptor (Homo sapiens (Human), UniProt P28223); test: Test 3: antagonist activity for human 5-HT2A receptor (aequorin luminescence, CHO-K1 cells); assay type: cell-based; conditions: CHO-K1 cells, 1 nmol/L 5-HT
Method in brief: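 CHO-K1 cells transiently co-expressing aequorin, Gα16 and receptor; compound in DMSO added and luminescence recorded on FDSS/μCELL.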

human 5-HT1A receptor [2] = target: T2, human 5-HT1A receptor (Homo sapiens (Human), UniProt P08908); test: Test 2: agonist activity for human 5-HT1A receptor ([35S]GTPγS binding); assay type: biochemical; conditions: for EC50: [35S]GTPγS binding, concentration at which half the activity of Emax was obtained; for Emax at 10 µM: agonist activity in the presence of 10 μM of compound, relative to 100 μmol/L 5-HT
T2 sequence (P08908 whole entry): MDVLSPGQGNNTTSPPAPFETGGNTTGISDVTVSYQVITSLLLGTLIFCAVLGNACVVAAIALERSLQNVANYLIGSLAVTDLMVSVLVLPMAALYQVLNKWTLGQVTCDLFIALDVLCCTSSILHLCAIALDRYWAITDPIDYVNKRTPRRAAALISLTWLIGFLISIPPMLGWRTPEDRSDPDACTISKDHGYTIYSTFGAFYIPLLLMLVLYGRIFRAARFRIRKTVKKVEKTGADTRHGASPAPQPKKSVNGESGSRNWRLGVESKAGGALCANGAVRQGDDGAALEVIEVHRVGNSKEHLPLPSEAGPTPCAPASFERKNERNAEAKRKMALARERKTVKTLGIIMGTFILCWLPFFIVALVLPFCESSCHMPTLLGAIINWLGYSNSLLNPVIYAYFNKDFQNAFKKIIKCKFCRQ
Method in brief: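 [35S]GTPγS binding read-out: after 60 min at room temperature with test compound in GDP buffer, human 5-HT1A receptor CHO membranes were vacuum-filtered and retained radioactivity scintillation-counted. Agonist activity calculated by formula.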

[3] = Test 4: metabolic stability test in human hepatic microsome; assay type: in vitro ADME; conditions: 0.1 mg/mL microsome, 0.1 μmol/L compound, 37° C., 30 minutes
Method in brief: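 LC-MS quantified remaining parent after 30 min, 37° C, in pH 7.4 25 mmol/L phosphate containing 0.1 mg/mL human hepatic microsomes, 3.2 mmol/L NADPH and 0.1 μmol/L test compound. Value given as −LN(residual ratio)/30/0.1, mL/min/mg protein.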

hERG channel = hERG channel (Homo sapiens (Human), UniProt Q12809); test: Test 6-1: inhibitory activity for hERG channel (auto patch clamp, Qpatch); assay type: cell-based; conditions: for hERG inhibition IC50 (nmol/L)/5-HT1A Ki (nmol/L): ratio of hERG IC50 to 5-HT1A Ki; for hERG inhibition IC50 (nmol/L)/5-HT2A Ki (nmol/L): ratio of hERG IC50 to 5-HT2A Ki; for IC50: whole cell auto patch clamp, hERG-CHO cells, read-out: hERG inhibition IC50
Chain of hERG channel (Q12809 whole entry): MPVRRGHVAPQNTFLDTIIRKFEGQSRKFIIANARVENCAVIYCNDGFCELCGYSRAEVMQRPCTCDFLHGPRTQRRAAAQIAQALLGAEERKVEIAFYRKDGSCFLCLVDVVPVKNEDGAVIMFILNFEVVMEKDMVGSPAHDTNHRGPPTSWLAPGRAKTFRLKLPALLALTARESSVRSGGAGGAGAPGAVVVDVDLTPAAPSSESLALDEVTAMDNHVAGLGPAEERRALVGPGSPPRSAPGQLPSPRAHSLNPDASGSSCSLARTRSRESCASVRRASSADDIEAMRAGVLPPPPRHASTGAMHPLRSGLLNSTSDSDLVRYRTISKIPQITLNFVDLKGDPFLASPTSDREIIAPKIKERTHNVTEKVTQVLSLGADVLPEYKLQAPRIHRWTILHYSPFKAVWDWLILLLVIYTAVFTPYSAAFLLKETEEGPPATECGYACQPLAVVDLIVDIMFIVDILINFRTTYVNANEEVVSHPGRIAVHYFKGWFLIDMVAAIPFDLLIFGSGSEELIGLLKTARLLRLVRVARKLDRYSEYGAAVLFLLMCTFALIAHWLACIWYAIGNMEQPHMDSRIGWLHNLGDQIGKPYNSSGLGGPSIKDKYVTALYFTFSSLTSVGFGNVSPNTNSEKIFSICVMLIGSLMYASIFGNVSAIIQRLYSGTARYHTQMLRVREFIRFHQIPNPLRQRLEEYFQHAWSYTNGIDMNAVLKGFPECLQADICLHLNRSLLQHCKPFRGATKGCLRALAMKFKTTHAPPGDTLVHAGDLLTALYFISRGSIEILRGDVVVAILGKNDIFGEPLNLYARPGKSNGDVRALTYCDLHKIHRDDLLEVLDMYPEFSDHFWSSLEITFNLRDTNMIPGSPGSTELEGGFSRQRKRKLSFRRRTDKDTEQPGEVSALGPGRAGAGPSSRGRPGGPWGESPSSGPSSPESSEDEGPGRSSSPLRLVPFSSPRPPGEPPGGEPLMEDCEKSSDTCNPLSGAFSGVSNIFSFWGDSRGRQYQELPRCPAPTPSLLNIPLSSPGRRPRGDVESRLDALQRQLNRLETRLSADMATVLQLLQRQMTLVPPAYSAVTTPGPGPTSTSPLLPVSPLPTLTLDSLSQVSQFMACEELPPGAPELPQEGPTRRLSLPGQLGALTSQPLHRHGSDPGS
Method in brief: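 Whole-cell patch clamp on an automated system using CHO cells stably expressing human hERG (IKr); 15 s pulse interval. Four increasing compound concentrations applied cumulatively; mean peak tail current from last 3 stimulations per concentration used. IC50 from inhibition versus pre-compound current, fitted by Hill equation.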

P-gp (MDR1) = P-gp (MDR1) (Homo sapiens (Human), UniProt P08183); test: Test 9: P-gp substrate property (NFR, MDCKII and MDR1-MDCKII cells); assay type: in vitro ADME; conditions: Net Flux Ratio, MDR1-MDCKII vs MDCKII cells
Chain of P-gp (MDR1) (P08183 whole entry, species assumed): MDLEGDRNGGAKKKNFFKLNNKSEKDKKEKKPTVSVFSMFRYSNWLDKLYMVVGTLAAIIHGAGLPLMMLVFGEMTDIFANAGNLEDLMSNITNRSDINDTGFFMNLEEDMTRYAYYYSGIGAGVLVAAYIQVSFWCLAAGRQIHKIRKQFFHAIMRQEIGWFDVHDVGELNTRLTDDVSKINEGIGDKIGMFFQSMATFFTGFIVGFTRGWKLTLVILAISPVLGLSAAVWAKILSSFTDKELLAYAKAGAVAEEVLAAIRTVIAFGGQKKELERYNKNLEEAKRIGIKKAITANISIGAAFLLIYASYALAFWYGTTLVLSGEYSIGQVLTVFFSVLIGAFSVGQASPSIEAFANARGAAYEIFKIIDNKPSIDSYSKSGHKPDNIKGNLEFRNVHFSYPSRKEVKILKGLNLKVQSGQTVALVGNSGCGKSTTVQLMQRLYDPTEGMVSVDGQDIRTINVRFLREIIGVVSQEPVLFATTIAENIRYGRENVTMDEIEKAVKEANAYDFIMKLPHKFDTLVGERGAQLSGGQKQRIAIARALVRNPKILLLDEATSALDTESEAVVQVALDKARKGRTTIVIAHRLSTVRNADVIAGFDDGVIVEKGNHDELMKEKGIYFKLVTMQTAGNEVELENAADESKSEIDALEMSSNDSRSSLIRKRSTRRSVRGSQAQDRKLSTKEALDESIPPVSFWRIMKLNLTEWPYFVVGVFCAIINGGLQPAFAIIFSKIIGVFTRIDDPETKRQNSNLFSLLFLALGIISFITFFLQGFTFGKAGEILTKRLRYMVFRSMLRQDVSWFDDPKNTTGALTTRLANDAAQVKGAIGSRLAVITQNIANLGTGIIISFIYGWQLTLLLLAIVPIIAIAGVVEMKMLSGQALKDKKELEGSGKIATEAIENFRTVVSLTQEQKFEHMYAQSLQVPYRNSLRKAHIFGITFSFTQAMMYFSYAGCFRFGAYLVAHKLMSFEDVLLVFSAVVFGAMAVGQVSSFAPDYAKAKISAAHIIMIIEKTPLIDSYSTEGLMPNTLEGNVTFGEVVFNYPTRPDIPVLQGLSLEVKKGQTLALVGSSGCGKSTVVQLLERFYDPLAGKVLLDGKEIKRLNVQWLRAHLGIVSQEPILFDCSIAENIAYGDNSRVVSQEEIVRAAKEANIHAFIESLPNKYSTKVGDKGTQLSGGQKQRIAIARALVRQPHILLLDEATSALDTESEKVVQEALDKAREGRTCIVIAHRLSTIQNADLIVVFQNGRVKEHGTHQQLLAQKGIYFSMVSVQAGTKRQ
Experimental: […]
NFR (Net Flux Ratio), which is an index of P-gp substrate property, can be calculated as follows. MDCKII (Madin-Darby canine kidney strain II) cells and MDR1-MDCKII cells in which MDR1 (multidrug resistance protein 1) was overexpressed were used to measure an apparent permeability coefficient (Papp A-B) from lumen (A) to basement membrane (B) and an apparent permeability coefficient (Papp B-A) from basement membrane (B) to lumen (A) of both MDCKII cells and MDR1-MDCKII cells. NFR (Net Flux Ratio) was calculated from the ratio between Ratio (Papp B-A/Papp A-B) of an apparent permeability coefficient of MDR1-MDCKII cells and Ratio of an apparent permeability coefficient of MDCKII cells.

human 5-HT2A receptor [4] = target: T1, human 5-HT2A receptor; test: Test 1: binding activity for human 5-HT2A receptor ([3H]Ketanserin, CHO cell membrane fraction)
Method in brief: (§1)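 Compound displacement of [3H]ketanserin at 5-HT2A or [3H]spiperone at D2 was measured in CHO membrane fractions after 60 min at room temperature, with filtration and scintillation counting. IC50 was converted to Ki by Cheng–Prusoff using ligand concentration and Kd from saturation binding.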

human 5-HT1A receptor [5] = target: T2, human 5-HT1A receptor; test: Test 1: binding activity for human 5-HT1A receptor ([3H]8-OH-DPAT, CHO cell membrane fraction)
Method in brief: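 Membranes incubated with [3H]8-OH-DPAT and compound for 60 min at room temperature, then filtered on polyethylenimine-coated glass-fibre plates and counted by liquid scintillation. IC50 from Hill analysis; Ki = IC50/(1+S/Kd), Kd from saturation binding on the same membranes.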

human D2 receptor = human D2 receptor (Homo sapiens (Human), UniProt P14416); test: Test 1: binding activity for human D2 receptor ([3H]Spiperone, CHO cell membrane fraction); conditions: for Ki: human D2 receptor, [3H]Spiperone; for D2 Ki/5-HT1A Ki / D2 Ki/5-HT2A Ki: selectivity ratio
Chain of human D2 receptor (P14416 whole entry): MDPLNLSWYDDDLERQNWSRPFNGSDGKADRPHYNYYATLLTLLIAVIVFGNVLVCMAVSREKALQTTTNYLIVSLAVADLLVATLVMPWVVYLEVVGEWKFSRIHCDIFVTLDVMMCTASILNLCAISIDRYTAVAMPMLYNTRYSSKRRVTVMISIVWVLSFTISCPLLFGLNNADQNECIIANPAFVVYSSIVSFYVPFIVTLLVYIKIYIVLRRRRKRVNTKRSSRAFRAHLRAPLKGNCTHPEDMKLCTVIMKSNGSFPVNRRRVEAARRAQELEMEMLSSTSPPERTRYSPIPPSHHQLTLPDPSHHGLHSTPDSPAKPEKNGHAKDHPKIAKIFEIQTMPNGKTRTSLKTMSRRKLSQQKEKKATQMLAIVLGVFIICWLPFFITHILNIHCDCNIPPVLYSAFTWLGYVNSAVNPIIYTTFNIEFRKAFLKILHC
Method in brief: as §1

[6] = Test 5: predictive test of human half-life (monkey distribution volume, serum unbound fraction, microsomal stability); assay type: in vivo; conditions: predicted from cynomolgus monkey distribution volume (i.v.), serum unbound fraction and human hepatic microsome stability
Experimental: Test 5: Predictive Test of Human Half-Life
The present compound was intravenously administered to cynomolgus monkey as an aqueous solution in 0.01 mol/L hydrochloric acid. Blood was collected on 5 minutes, 15 minutes, 30 minutes, 1 hour, 2 hours, 4 hours, 6 hours, and 24 hours after the administration. Plasma was obtained from the collected blood, the drug concentration in the plasma was measured by LC-MS, and the distribution volume of monkey was calculated from the transition of the concentration.
The unbound fraction rate of the present compound in human or monkey serum was measured by equilibrium dialysis method.
The half-life in human was calculated according to the following formula using the results of the distribution volume of monkey, the unbound fraction rate in human or monkey serum, and the metabolic stability in human hepatic microsome obtained in Test 3.

T1 sequence (P28223 whole entry): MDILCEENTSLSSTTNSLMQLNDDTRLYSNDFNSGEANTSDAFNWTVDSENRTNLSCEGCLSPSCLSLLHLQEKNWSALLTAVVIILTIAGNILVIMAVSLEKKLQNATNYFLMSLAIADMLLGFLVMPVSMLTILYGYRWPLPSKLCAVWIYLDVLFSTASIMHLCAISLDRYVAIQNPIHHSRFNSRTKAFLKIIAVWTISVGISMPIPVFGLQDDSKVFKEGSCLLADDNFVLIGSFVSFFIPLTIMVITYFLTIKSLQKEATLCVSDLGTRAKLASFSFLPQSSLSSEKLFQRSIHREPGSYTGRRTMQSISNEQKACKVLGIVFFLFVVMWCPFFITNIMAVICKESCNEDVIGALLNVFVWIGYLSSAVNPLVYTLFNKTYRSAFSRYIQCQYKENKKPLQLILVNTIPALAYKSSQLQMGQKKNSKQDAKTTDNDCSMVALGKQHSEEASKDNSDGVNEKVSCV

| Compound | IC50 (human 5-HT2A receptor [1]) [nM] | EC50 (human 5-HT1A receptor [2]) [nM] | Emax at 10 µM (human 5-HT1A receptor [2]) [%] | Metabolic stability in human hepatic microsome [3] [mL/min/mg protein] | hERG inhibition IC50 (nmol/L)/5-HT1A Ki (nmol/L) (hERG channel) | hERG inhibition IC50 (nmol/L)/5-HT2A Ki (nmol/L) (hERG channel) | IC50 (hERG channel) [nM] | NFR (P-gp (MDR1)) | Ki (human 5-HT2A receptor [4]) [nM] | IC50 (human 5-HT2A receptor [1]; aequorin luminescence) [nM] | Ki (human 5-HT1A receptor [5]) [nM] | Ki (human D2 receptor) [nM] | D2 Ki/5-HT1A Ki (human D2 receptor) | D2 Ki/5-HT2A Ki (human D2 receptor) | half-life [6] [h] |
| --- | --- | --- | --- | --- | --- | --- | --- | --- | --- | --- | --- | --- | --- | --- | --- |
| Cn1cnc2c1CCN(CCN1CCN(c3nsc4ccccc34)CC1)C2=O [Example 54] | 13 | 38.4 | 55 | <0.01 | >3637 | >1538 | > 10000 | 6.6 | – | – | – | – | – | – | – |
| CCc1ccc2c(n1)C(=O)N(CCN1CCC(c3noc4ccccc34)CC1)CC2 [Example 185] | – | 95.3 | 52 | <0.05 | 214 | 25 | 700 | 2.4 | 28.3 | 68.7 | 3.26 | 1170 | 358.6 | 41.4 | – |
| Cn1ccc2c1CCCN(CCN1CCC(c3noc4ccccc34)CC1)C2=O [Example 103, 5-{2-[4-(1,2-Benzoisoxazol-3-yl)piperidin-1-yl]ethyl}-1-methyl-5,6,7,8-tetrahydropyrrolo[3,2-c]azepin-4(1H)-one] | – | 5.8 | 62 | <0.01 | – | – | 1400 | – | – | – | 0.47 | 129 | – | – | > 45 |
| O=C1c2nc(Cl)ccc2CCN1CCN1CCC(c2noc3ccccc23)CC1 [Example 146] | – | 6.07 | 55 | <0.05 | 99 | 28 | 300 | 2.3 | 10.7 | 199 | 3.02 | 772 | 255.8 | 72.4 | – |
| Cc1cc2c(cn1)C(=O)N(CCN1CCN(c3noc4ccccc34)CC1)CC2 [Example 3, 2-{2-[4-(1,2-Benzoisoxazol-3-yl)piperazin-1-yl]ethyl}-6-methyl-3,4-dihydro-2,7-naphthyridin-1(2H)-one] | – | 10.1 | 69 | <0.01 | – | – | 7900 | – | – | – | 2.7 | 1260 | – | – | > 30 |
| Cn1ccc2c1CCN(CCN1CCC(c3noc4ccccc34)CC1)C2=O [Example 60] | 3.91 | 43 | 54 | 0.018 | 51 | 640 | 700 | 1.5 | 1.1 | – | 13.7 | 260 | 19 | 236 | – |
| Cc1c2c(nn1C)CCN(CCN1CCC(c3noc4ccccc34)CC1)C2=O [Example 37, 5-{2-[4-(1,2-Benzoisoxazol-3-yl)piperidin-1-yl]ethyl}-2,3-dimethyl-2,5,6,7-tetrahydro-4H-pyrazolo[4,3-c]pyridin-4-one] | – | 35 | 71 | 0.017 | – | – | 1000 | – | – | – | 2.68 | 267 | – | – | 8 |
| Cn1ncc2c1C(=O)N(CCN1CCN(c3nsc4ccccc34)CC1)CC2 [Example 59] | 9 | 8 | 61 | 0.173 | – | – | – | 1.1 | 0.45 | – | 1.99 | 125 | 63 | 278 | – |
| Cn1ncc2c1CCCN(CCN1CCC(c3noc4ccccc34)CC1)C2=O [Example 43] | 6.52 | 8.5 | 73 | <0.01 | 1630 | 2274 | 2100 | 2.2 | 0.93 | – | 1.3 | 222 | 171 | 239 | – |
| Cc1ncc2c(n1)CCN(CCN1CCC(c3noc4ccccc34)CC1)C2=O [Example 88, 6-{2-[4-(1,2-Benzoisoxazol-3-yl)piperidin-1-yl]ethyl}-2-methyl-7,8-dihydropyrido[4,3-d]pyrimidin-5(6H)-one] | – | 37 | 49 | <0.01 | – | – | 5600 | – | – | – | 6.3 | 916 | – | – | > 23 |
| Cn1cc2c(n1)CCN(CCN1CCN(c3nsc4ccccc34)CC1)C2=O [Example 36, 5-{2-[4-(1,2-Benzoisothiazol-3-yl)piperazin-1-yl]ethyl}-2-methyl-2,5,6,7-tetrahydro-4H-pyrazolo[4,3-c]pyridin-4-one] | 6 | 2.7 | 78 | 0.085 | 7112 | 5162 | 3200 | 1.8 | 0.62 | – | 0.45 | 903 | 2007 | 1456 | – |
